Assays:
[1] = tested on: transplanted tracheas (chronic rejection); details: graft stored 4 hrs at 4° C. in UW solution with additive; harvested 28 days after transplantation
From the text: Twenty eight days later transplanted tracheas were harvested and assessed for the degree of chronic rejection.

MHC I = assay: Western blot of MHC I in lysates of HUVEC treated with pro-inflammatory cytokine cocktail; type: cell-based, Human; details: IL-1β, INFγ, TNFα cocktail; 10 or 100 ng/mL
Procedure: Cells were then lysed using mammalian protein extraction reagent (Pierce, Ill.) supplemented with Halt Protease and Phosphatase Inhibitor Cocktails. Lysates were centrifuged at 10,000 rpm for 15 minutes. All western blot reagents were purchased from Bio-Rad (CA) unless specified. The protein concentration of each lysate was determined via Bradford calorimetric Assay (Thermo Scientific, PA; 232225), and 1.6 μg of protein from each whole cell lysate was added to a 4-20% precast gel and subjected to SDS-page electrophoresis. Protein was transferred to a PVDF membrane by semi-dry transfer, where it was stained with anti-MHC class I antibody (W6) and blocked overnight with TBS-T (Tris-Buffered Saline-Tween 20) containing 5% nonfat dry milk and 0.5% BSA. An appropriate HRP-conjugated secondary antibody was added to fresh block solution at a 1:1000 dilution to incubate for 1 hour at room temperature. The protein band was then detected by enhanced chemiluminescence (ECL).

Q: `CO[C@H]1C[C@@H]2CC[C@@H](C)[C@@](O)(O2)C(=O)C(=O)N2CCCC[C@H]2C(=O)O[C@H]([C@H](C)C[C@@H]2CC[C@@H](O)[C@H](OC)C2)CC(=O)[C@H](C)/C=C(\C)[C@@H](O)[C@@H](OC)C(=O)[C@H](C)C[C@H](C)/C=C/C=C/C=C/1C` [free rapamycin, rapamycin] was tested. Which “degree of chronic rejection (fibrosis, inflammation, epithelium) as compared to UW alone” value [1] did it give?
A: reduced fibrosis, inflammation and preserved normal pseudo stratified respiratory epithelium

Q: And the “level of MHC I expression in HUVEC” value (MHC I)?
A: able to down regulate

— US11214805B2, “Targeted nanocarriers for the administration of immunosuppressive agents” (MUSC FOUNDATION FOR RESEARCH DEVELOPMENT, priority 2014, dated 2022)
